The structures appear in SMILES notation.

T1 sequence (P45983 1-364): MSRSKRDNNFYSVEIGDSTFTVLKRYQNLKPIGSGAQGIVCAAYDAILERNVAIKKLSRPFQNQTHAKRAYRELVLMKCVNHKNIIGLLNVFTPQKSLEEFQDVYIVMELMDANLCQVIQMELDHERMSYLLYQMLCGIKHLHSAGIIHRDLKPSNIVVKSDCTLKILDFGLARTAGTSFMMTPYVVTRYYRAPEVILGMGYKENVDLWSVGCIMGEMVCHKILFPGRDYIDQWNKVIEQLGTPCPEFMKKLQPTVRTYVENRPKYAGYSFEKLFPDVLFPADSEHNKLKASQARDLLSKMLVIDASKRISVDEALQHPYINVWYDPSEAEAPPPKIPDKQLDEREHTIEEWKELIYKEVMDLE

The first assay has as its target T1, JNK1α1 (Homo sapiens, UniProt P45983).
T1 construct: catalytic domain containing amino acids 1-364 and N-terminal hexahistidine tag; hexahistidine (His6) (N); made in house; host or cells: E. coli BL21 (DE3)
Briefly: Coupled spectrophotometric (PK/LDH) JNK1α1 assay: % inhibition and Ki determination. The assay is classed as biochemical. Conditions: @1 uM; read-out: % Inhibition JNK-1. The protocol:
% Inhibition and Ki Determination
A coupled spectrophotometric assay, coupling JNK1α1 activity to the oxidation of β-NADH to NAD+ through the action of pyruvate kinase (PK) and lactic dehydrogenase (LDH), was used to determine the potency (percent inhibition at 1 or 10 μM or Ki) of compounds against JNK1α1 (Genbank Accession Number: L26318). […] The reaction was monitored by following the decrease in absorbance at 340 nm. The initial reaction rate was determined by the slope of the change in absorbance. To calculate percent inhibition the rate of the reaction in the presence of 1 or 10 μM compound was compared to the rate of the reaction with only DMSO multiplied by 100 percent. Note, the background rate of the above reaction in the presence of 10 μM PHA-00738186 was subtracted from all rates. […] Y=(−X+Eo−(Ki*(1+A/Km))+((X−Eo+(Ki*(1+A/Km)))^2+4*Eo*(Ki*(1+A/Km)))^0.5)*(Vm*A/(Km+A)/(2*Eo)) Formula: • Parameters: Eo, Ki, A, Km, Vo • Y is initial reaction velocity; • X is inhibitor concentration; • A is [ATP]; • Ki is inhibition constant; • Vm is Vmax; • Eo is total (initial) enzyme concentration; • Km is ATP Km;
The compounds were prepared in 100% DMSO at a 40× concentration. For percent inhibition experiments this would be 400 or 40 μM for 10 and 1 μM final concentration, respectively. For the Ki determination 3× serial dilutions were made starting at 4 mM (100 μM at 1×) in DMSO. A total of 11 concentrations were used for the analysis. The compounds were added to the reaction plate first. Next, a solution containing the HEPES, MgCl2, DTT, peptide substrate, NADH, PEP, PK/LDH enzyme, and JNK1α1—364nHis enzyme was added to the assay plate. The plate was incubated at room temperature for 15 minutes. Then the plate was warmed to 30° C. for 5 minutes. The reaction was initiated with the addition of ATP. The reaction was run in a plate reader at 30° C. for 20 minutes with absorbance readings made about every 10 seconds.
The column with “#” heading refers to compound number as exemplified in the Examples section. The column with “Ki” heading refers to Ki (in nM). The column with “% Inhibition” heading refers to percent inhibition of JNK-1 at 1 μM or 10 μM (in %) unless otherwise stated. ND refers to no data was taken.
On to `CC1(COc2ccc3cnc(N[C@H]4CC[C@H](O)CC4)nc3c2)COC1` [Example 281, trans-4-({7-[(3-methyloxetan-3-yl)methoxy]quinazolin-2-yl}amino)cyclohexanol], for which the inhibition – broadly, the share of the control response that was lost under treatment – at 1 µM was 72%.
For the molecule `O=C(NCCN1CCCC1=O)c1cccc2cnc(N[C@H]3CC[C@H](O)CC3)nc12` [Example 493, 2-[(trans-4-hydroxycyclohexyl)amino]-N-(2-(2-oxopyrrolidin-1-yl)ethyl]quinazoline-8-carboxamide], the inhibition at 1 µM stood at 11%.
Same read-out and setting: the figure for `O[C@H]1CC[C@H](Nc2ncc3ccc(OCc4ccccc4CN4CCCC4)cc3n2)CC1` [Example 297, trans-4-[(7-{[2-(pyrrolidin-1-ylmethyl)benzyl]oxy}quinazolin-2-yl)amino]cyclohexanol] is 28%; for `Cc1cccc(CC(C)NC(=O)c2cccc3cnc(N[C@H]4CC[C@H](O)CC4)nc23)n1` (stereo partly drawn) [Example 475, 2-[(trans-4-hydroxycyclohexyl)amino]-N-[1-methyl-2-(6-methylpyridin-2-yl)ethyl]quinazoline-8-carboxamide] it is 11%.
As to `C[C@@H](NC(=O)c1cccc2cnc(N[C@H]3CC[C@H](O)CC3)nc12)[C@@H](O)c1ccccc1` [Example 472, 2-[(trans-4-hydroxycyclohexyl)amino]-N-[(1R,2S)-2-hydroxy-1-methyl-2-phenylethyl]quinazoline-8-carboxamide], the inhibition at 1 µM was 25%.
In the case of `O=C(N[C@H]1CCN(C(=O)c2ccccc2)C1)c1cccc2cnc(N[C@H]3CC[C@H](O)CC3)nc12` [Example 517, N-(1-benzoylpyrrolidin-3-yl)-2-[(trans-4-hydroxycyclohexyl)amino]quinazoline-8-carboxamide], the inhibition at 1 µM turned out to be 16%.
On the same count and under the same terms, in the case of `CC(C)Nc1ncc2ccc(C(=O)N[C@H](CO)CC3CCCCC3)cc2n1` [Example 429, N-[(1S)-2-cyclohexyl-1-(hydroxymethyl)ethyl]-2-(isopropylamino)quinazoline-7-carboxamide] it was 25%; in that of `Cc1nnc(CNC(=O)c2cccc3cnc(N[C@H]4CC[C@H](O)CC4)nc23)o1` [Example 514, 2-[(trans-4-hydroxycyclohexyl)amino]-N-[(5-methyl-1,3,4-oxadiazol-2-yl)methyl]quinazoline-8-carboxamide], 11%.

Staying with this assay, now noted: @10 uM; read-out: % Inhibition JNK-1.
On to `CCN1CCC(Oc2cccc3cnc(N[C@H]4CC[C@H](O)CC4)nc23)C1` (stereo partly drawn) [Example 259, trans-4-({8-[(1-ethylpyrrolidin-3-yl)oxy]quinazolin-2-yl}amino)cyclohexanol], for which the inhibition at 10 µM is 65%.
On the same count and under the same terms, the figure for `CC(C)c1nc(CNC(=O)c2cccc3cnc(N[C@H]4CC[C@H](O)CC4)nc23)no1` [Example 502, 2-[(trans-4-hydroxycyclohexyl)amino]-N-[(5-isopropyl-1,2,4-oxadiazol-3-yl)methyl]quinazoline-8-carboxamide] is 50%.
Still for that read-out and setting: in the case of `O=C(Nc1nccc2cccnc12)c1cccc2cnc(N[C@H]3CC[C@H](O)CC3)nc12` [Example 315, 2-[(trans-4-hydroxycyclohexyl)amino]-N-1,7-naphthyridin-8-ylquinazoline-8-carboxamide] it was 52%.
Consider `Cc1ccc(C(C)NC(=O)c2cccc3cnc(N[C@H]4CC[C@H](O)CC4)nc23)cn1` (stereo partly drawn) [Example 487, 2-[(trans-4-hydroxycyclohexyl)amino]-N-[1-(6-methylpyridin-3-yl)ethyl]quinazoline-8-carboxamide], for which the inhibition at 10 µM came out at 51%.
`O=C(NCCN1CCCCC1=O)c1cccc2cnc(N[C@H]3CC[C@H](O)CC3)nc12` [Example 486, 2-[(trans-4-hydroxycyclohexyl)amino]-N-[2-(2-oxopiperidin-1-yl)ethyl]quinazoline-8-carboxamide]: the inhibition at 10 µM came to 50%.

Staying with this assay, now noted: JNK-1.
Regarding `O=C(Nc1ccccn1)c1cccc2cnc(N[C@H]3CC[C@H](O)CC3)nc12` [Example 110, 2-[(trans-4-hydroxycyclohexyl)amino]-N-pyridin-2-ylquinazoline-8-carboxamide], the affinity corresponds to a Ki of 86 nM.
Still for that read-out and setting: the figure for `O=C(CCc1ccc(C(F)(F)F)cc1)Nc1cc2cc(-c3cn[nH]c3)ccc2cn1` [Example 39, N-[6-(1H-pyrazol-4-yl)isoquinolin-3-yl]-3-[4-(trifluoromethyl)phenyl]propanamide] is 7 nM; for `CC(=O)N1CCC(C(=O)Nc2cc3cc(-c4cn[nH]c4)ccc3cn2)CC1` [Example 15, 1-acetyl-N-[6-(1H-pyrazol-4-yl)isoquinolin-3-yl]piperidine-4-carboxamide] it is 24 nM; for `O=C(NCCN1CCCC1=O)c1ccc2cnc(N[C@H]3CC[C@H](O)CC3)nc2c1` [Example 367, 2-[(trans-4-hydroxycyclohexyl)amino]-N-[2-(2-oxopyrrolidin-1-yl)ethyl]quinazoline-7-carboxamide] it is 2180 nM.
For the molecule `COc1cccc2cnc(NC3CCCCC3)nc12` [Example 149], the affinity corresponds to a Ki of 485 nM.
Still for that read-out and setting: the figure for `O=C(Nc1nccc(O)n1)c1cccc2cnc(N[C@H]3CC[C@H](O)CC3)nc12` [Example 125, 2-[(trans-4-hydroxycyclohexyl)amino]-N-(4-hydroxypyrimidin-2-yl)quinazoline-8-carboxamide] is 520 nM.
For the molecule `Cc1n[nH]c(C)c1CNC(=O)c1cccc2cnc(N[C@H]3CC[C@H](O)CC3)nc12` [Example 452, N-[(3,5-dimethyl-1H-pyrazol-4-yl)methyl]-2-[(trans-4-hydroxycyclohexyl)amino]quinazoline-8-carboxamide], the Ki (usually the dissociation constant of the complex between target and ligand, obtained from inhibition or displacement) was determined as 166 nM.
On the same count and under the same terms, the figure for `O=C(NC1(CO)CCCC1)c1cccc2cnc(N[C@H]3CC[C@H](O)CC3)nc12` [Example 454, 2-[(trans-4-hydroxycyclohexyl)amino]-N-[1-(hydroxymethyl)cyclopentyl]quinazoline-8-carboxamide] is 221 nM; for `C[C@@H](CO)NC(=O)c1ccc2cnc(NC3CCCCC3)nc2c1` [Example 399, 2-(cyclohexylamino)-N-[(1S)-2-hydroxy-1-methylethyl]quinazoline-7-carboxamide] it is 461 nM; for `COc1ccc(CC(=O)Nc2cc3cc(-c4cnn(C)c4)ccc3cn2)cc1` [Example 4, 2-(4-methoxyphenyl)-N-[6-(1-methyl-1H-pyrazol-4-yl)isoquinolin-3-yl]acetamide] it is 0.8 nM.
The same measure, in the same setting: in the case of `O=C(NCC1CCCCO1)c1ccc2cnc(N[C@H]3CC[C@H](O)CC3)nc2c1` (stereo partly drawn) [Example 348, 2-[(trans-4-hydroxycyclohexyl)amino]-N-(tetrahydro-2H-pyran-2-ylmethyl)quinazoline-7-carboxamide] it was 978 nM; in that of `CC(C)(CN1CCOCC1)NC(=O)c1cccc2cnc(N[C@H]3CC[C@H](O)CC3)nc12` [Example 105, N-(1,1-dimethyl-2-morpholin-4-ylethyl)-2-[(trans-4-hydroxycyclohexyl)amino]quinazoline-8-carboxamide], 703 nM; in that of `O=C(NC1CC1)c1cccc2cnc(N[C@H]3CC[C@H](O)CC3)nc12` [Example 447, N-cyclopropyl-2-[(trans-4-hydroxycyclohexyl)amino]quinazoline-8-carboxamide], 119 nM.
Still for that read-out and setting: in the case of `CN(C)CCNC(=O)c1cccc2cnc(N[C@H]3CC[C@H](O)CC3)nc12` [Example 127, N-[2-(dimethylamino)ethyl]-2-[(trans-4-hydroxycyclohexyl)amino]quinazoline-8-carboxamide] it was 3490 nM; in that of `c1cc(CNc2cc3cc(-c4cn[nH]c4)ccc3cn2)cc(-c2cncnc2)c1` [Example 223, 6-(1H-pyrazol-4-yl)-N-(3-pyrimidin-5-ylbenzyl)isoquinolin-3-amine], 3280 nM.
`CC(O)c1cccc(NC(=O)c2cccc3cnc(N[C@H]4CC[C@H](O)CC4)nc23)n1` (stereo partly drawn) [Example 126, 2-[(trans-4-hydroxycyclohexyl)amino]-N-[6-(1-hydroxyethyl)pyridin-2-yl]quinazoline-8-carboxamide] registered a Ki of 382 nM.
The same measure, in the same setting: in the case of `CCC(CO)NC(=O)c1cccc2cnc(N[C@H]3CC[C@H](O)CC3)nc12` (stereo partly drawn) [Example 442, 2-[(trans-4-hydroxycyclohexyl)amino]-N-[1-(hydroxymethyl)propyl]quinazoline-8-carboxamide] it was 83 nM.
The same measure, in the same setting: in the case of `O=C(Cn1nc(C(F)(F)F)c2c1CCCC2)Nc1cc2cc(-c3cn[nH]c3)ccc2cn1` [Example 37, N-[6-(1H-pyrazol-4-yl)isoquinolin-3-yl]-2-[3-(trifluoromethyl)-4,5,6,7-tetrahydro-1H-indazol-1-yl]acetamide] it was 2 nM.

These data come from patent US7998978B2 (Pfizer Inc., priority 2006, dated 2011).
